US10131652B2, “Pyrimidinyloxy benzene derivatives as herbicides” (E. I. DU PONT DE NEMOURS AND COMPANY, priority 2014, dated 2018)
Like-named read-outs stand apart in the source and are kept apart here.

Tests used:
Test in all cases: Test F pre-/postemergence plant response
Assay type in all cases: in vivo
corn (Zea mays) = conditions: Zea mays, scale 0 to 100
Summary of the method: (§1)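 In a greenhouse, compounds carried in a non-phytotoxic surfactant-containing solvent mixture were applied to soil at planting and to young 1- to 4-leaf plants. About two to three weeks (14 to 21 days) afterward, each species was compared with controls and rated visually from 0 to 100.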

[1] = system: nightshade (eastern black nightshade, Solanum ptycanthum); conditions: Solanum, pre-emergence, scale 0 to 100, read-out: Plant response rating, Nightshade
Summary of the method: as §1

[2] = system: hairy beggarticks (Bidens pilosa); conditions: Bidens pilosa, scale 0 to 100, read-out: Plant response rating, Beggarticks
Summary of the method: as §1

[3] = system: Brazilian crabgrass (Digitaria horizontalis); conditions: Digitaria horizontalis, scale 0 to 100, read-out: Plant response rating, Crabgrass, Brazil
Summary of the method: as §1

[4] = system: goosegrass (Eleusine indica); conditions: Eleusine indica, pre-emergence, scale 0 to 100, read-out: Plant response rating, Goosegrass
Summary of the method: as §1

[5] = system: palmer pigweed (Amaranthus palmeri); conditions: Amaranthus palmeri, scale 0 to 100, read-out: Plant response rating, Pigweed, Palmer
Summary of the method: as §1

[6] = system: sandbur (southern sandbur, Cenchrus echinatus); conditions: Cenchrus echinatus, scale 0 to 100, read-out: Plant response rating, Sandbur
Summary of the method: as §1

[7] = system: velvetleaf (Abutilon theophrasti); conditions: Abutilon theophrasti, pre-emergence, scale 0 to 100, read-out: Plant response rating, Velvetleaf
Summary of the method: as §1

[8] = system: fall panicum (Panicum dichotomiflorum); conditions: Panicum dichotomiflorum, scale 0 to 100, read-out: Plant response rating, Panicum, Fall
Summary of the method: as §1

[9] = system: arrowleaf sida (Sida rhombifolia); conditions: Sida rhombifolia, scale 0 to 100, read-out: Plant response rating, Arrowleaf Sida
Summary of the method: as §1

[10] = post-emergence, 31 g ai/ha Postemergence
[11] = post-emergence, 62 g ai/ha Postemergence
[12] = pre-emergence, 31 g ai/ha Preemergence
[13] = pre-emergence, 62 g ai/ha Preemergence

Fc1cccc(Oc2ncc(Cl)cn2)c1-c1cc(C(F)F)on1 [Compound 55, 5-chloro-2-[2-[5-(difluoromethyl)-3-isoxazolyl]-3-fluorophenoxy]pyrimidine]
Corn plant response rating (crop injury, 0 = no effect, 100 = complete kill) at 31 g/ha (corn (Zea mays); [10]): 15%
Corn plant response rating (crop injury, 0 = no effect, 100 = complete kill) at 62 g/ha (corn (Zea mays); [11]): 20%
Corn plant response rating (crop injury, 0 = no effect, 100 = complete kill) at 31 g/ha (corn (Zea mays); [12]): 0%
Corn plant response rating (crop injury, 0 = no effect, 100 = complete kill) at 62 g/ha (corn (Zea mays); [13]): 40%
pest or weed control at 31 g/ha ([1]; 31 g ai/ha Preemergence): 98%
pest or weed control at 62 g/ha ([1]; Preemergence): 98%
pest or weed control at 31 g/ha [2, 10]: 55%
pest or weed control at 62 g/ha [2, 11]: 70%
pest or weed control at 31 g/ha [2, 12]: 0%
pest or weed control at 62 g/ha [2, 13]: 0%
pest or weed control at 31 g/ha [3, 10]: 40%
pest or weed control at 62 g/ha [3, 11]: 30%
pest or weed control at 31 g/ha [3, 12]: 75%
pest or weed control at 62 g/ha [3, 13]: 100%
pest or weed control at 31 g/ha ([4]; 31 g ai/ha Preemergence): 5%
pest or weed control at 62 g/ha ([4]; Preemergence): 50%
pest or weed control at 31 g/ha [5, 10]: 98%
pest or weed control at 62 g/ha [5, 11]: 98%
pest or weed control at 31 g/ha [5, 12]: 75%
pest or weed control at 62 g/ha ([5]; pre-emergence, Preemergence): 100%
pest or weed control at 31 g/ha [6, 10]: 25%
pest or weed control at 62 g/ha [6, 11]: 15%
pest or weed control at 31 g/ha [6, 12]: 0%
pest or weed control at 62 g/ha ([6]; pre-emergence, Preemergence): 0%
pest or weed control at 31 g/ha ([7]; 31 g ai/ha Preemergence): 100%
pest or weed control at 62 g/ha ([7]; Preemergence): 100%
pest or weed control at 31 g/ha [8, 10]: 40%
pest or weed control at 62 g/ha [8, 11]: 30%
pest or weed control at 31 g/ha [8, 12]: 90%
pest or weed control at 62 g/ha ([8]; pre-emergence, Preemergence): 100%
pest or weed control at 31 g/ha [9, 10]: 95%
pest or weed control at 62 g/ha [9, 11]: 100%
pest or weed control at 31 g/ha [9, 12]: 98%
pest or weed control at 62 g/ha [9, 13]: 100%
